How the values were obtained:
Hep 3B2 = test: Antiproliferative activity against human Hep3B cells assessed as reduction in cell viability incubated for 72 hrs by Cell Titer-Glo assay
[1] = Metabolic stability in human liver microsomes assessed as intrinsic clearance at 1 uM incubated for 60 mins by LC-MS/MS analysis; format: ADME, Microsome; settings: read-out: CLH
[2] = Metabolic stability in human liver microsomes assessed as half life at 1 uM incubated for 60 mins by LC-MS/MS analysis; format: ADME, Microsome
[3] = molecular target: Fibroblast growth factor receptor 4 (Homo sapiens, UniProt P22455); test: Inhibition of human FGFR4 using poly (Glu, Tyr)4:1 as substrate incubated for 20 mins followed by [33P]-ATP addition and measured after 120 mins by radiometric hotspot assay
Fibroblast growth factor receptor 4, sequence (P22455 whole entry): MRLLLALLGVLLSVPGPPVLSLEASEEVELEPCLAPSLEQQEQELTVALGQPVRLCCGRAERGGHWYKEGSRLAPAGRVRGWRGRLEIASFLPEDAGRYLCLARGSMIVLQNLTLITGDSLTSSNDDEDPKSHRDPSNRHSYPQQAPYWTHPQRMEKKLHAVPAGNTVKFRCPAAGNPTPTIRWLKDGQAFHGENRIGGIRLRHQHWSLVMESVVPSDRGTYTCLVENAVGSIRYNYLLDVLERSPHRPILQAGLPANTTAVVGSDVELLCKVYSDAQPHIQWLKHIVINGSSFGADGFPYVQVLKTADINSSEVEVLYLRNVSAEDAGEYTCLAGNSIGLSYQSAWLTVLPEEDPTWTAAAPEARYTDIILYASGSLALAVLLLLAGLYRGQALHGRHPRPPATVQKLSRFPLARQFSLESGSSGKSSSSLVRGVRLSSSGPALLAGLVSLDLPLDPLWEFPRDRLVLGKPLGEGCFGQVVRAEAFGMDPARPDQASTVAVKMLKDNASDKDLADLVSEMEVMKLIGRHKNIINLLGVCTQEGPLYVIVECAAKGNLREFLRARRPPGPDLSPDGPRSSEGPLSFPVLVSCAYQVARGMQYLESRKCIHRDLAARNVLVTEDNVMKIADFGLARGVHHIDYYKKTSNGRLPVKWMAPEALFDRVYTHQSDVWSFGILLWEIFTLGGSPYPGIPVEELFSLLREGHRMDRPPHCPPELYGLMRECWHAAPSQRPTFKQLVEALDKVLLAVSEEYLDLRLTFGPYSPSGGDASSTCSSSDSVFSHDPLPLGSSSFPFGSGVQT

[4] = Cmax in Sprague-Dawley rat at 1 mg/kg, iv measured upto 24 hrs by LC-MS/MS analysis; format: ADME, organism-based; set-up: route intravenous, dose 1 mg/kg, time <=24; settings: in vivo
[5] = Half life in Sprague-Dawley rat at 10 mg/kg, po measured upto 24 hrs by LC-MS/MS analysis; format: ADME, organism-based; settings: in vivo
[6] = Tmax in Sprague-Dawley rat at 10 mg/kg, po measured upto 24 hrs by LC-MS/MS analysis; format: ADME, organism-based; settings: in vivo
[7] = AUClast in Sprague-Dawley rat at 10 mg/kg, po measured upto 24 hrs by LC-MS/MS analysis; format: ADME, organism-based; set-up: route oral, dose 10 mg/kg, time <=24; settings: in vivo
[8] = Oral bioavailability in Sprague-Dawley rat at 10 mg/kg measured upto 24 hrs by LC-MS/MS analysis; format: ADME, organism-based; settings: in vivo
[9] = Cmax in Sprague-Dawley rat at 10 mg/kg, po measured upto 24 hrs by LC-MS/MS analysis; format: ADME, organism-based; set-up: route oral, dose 10 mg/kg, time <=24; settings: in vivo
[10] = MRTlast in Sprague-Dawley rat at 10 mg/kg, po measured upto 24 hrs by LC-MS/MS analysis; format: ADME, organism-based; settings: in vivo
[11] = Tmax in Sprague-Dawley rat at 1 mg/kg, iv measured upto 24 hrs by LC-MS/MS analysis; format: ADME, organism-based; settings: in vivo
[12] = MRTlast in Sprague-Dawley rat at 1 mg/kg, iv measured upto 24 hrs by LC-MS/MS analysis; format: ADME, organism-based; settings: in vivo
[13] = AUClast in Sprague-Dawley rat at 1 mg/kg, iv measured upto 24 hrs by LC-MS/MS analysis; format: ADME, organism-based; set-up: route intravenous, dose 1 mg/kg, time <=24; settings: in vivo
[14] = Half life in Sprague-Dawley rat at 1 mg/kg, iv measured upto 24 hrs by LC-MS/MS analysis; format: ADME, organism-based; settings: in vivo

Row | SMILES | IC50 (Hep 3B2) | IC50 [3] | other results
1 | C=CC(=O)Nc1cccc(C)c1Nc1ncc2cc(-c3c(Cl)c(OC)cc(OC)c3Cl)ccc2n1 | 0.288 µM | – | microsomal CLint at 1 µM [1]: 74.1 µL/min/mg; half-life at 1 µM [2]: 46.7 min
2 | CC#CC(=O)N1CCN(CCCn2cc(-c3cc(OC)cc(OC)c3)c3cnc(NC)nc32)CC1 | > 10 µM | > 1 µM | –
3 | CC#CC(=O)Nc1ccccc1Nc1ccc2c(C(=O)c3cc(OC)cc(OC)c3)c[nH]c2n1 | 0.602 µM | – | –
4 | C=CC(=O)N1CCN(CCCn2cc(-c3cc(OC)cc(OC)c3)c3ccc(NC)nc32)CC1 | > 10 µM | – | –
5 | C=CC(=O)N1CCN(CCn2cc(-c3cc(OC)cc(OC)c3)c3cnc(NC)nc32)CC1 | > 10 µM | > 1 µM | –
6 | C=CC(=O)N1CCN(CCn2cc(-c3ccc(OC)c(OC)c3)c3cnc(NC)nc32)CC1 | > 10 µM | > 1 µM | –
7 | C=CS(=O)(=O)Nc1ccccc1Nc1ccc2c(C(=O)c3cc(OC)cc(OC)c3)c[nH]c2n1 | 1.03 µM | – | –
8 | CNc1ncc2c(-c3cc(OC)cc(OC)c3)noc2n1 | > 10 µM | > 1 µM | –
9 | C=CS(=O)(=O)N1CCN(CCCn2cc(-c3cc(OC)cc(OC)c3)c3cnc(NC)nc32)CC1 | > 10 µM | > 1 µM | –
10 | C=CC(=O)N1CCN(CCn2nc(-c3cc(OC)cc(OC)c3)c3cnc(NC)nc32)CC1 | > 10 µM | > 1 µM | –
11 | C=CC(=O)Nc1ccccc1Nc1ccc2c(C(=O)c3cc(OC)cc(OC)c3)c[nH]c2n1 | – | – | Cmax [4]: 361 ng/mL; half-life [5]: 463 min; Tmax [6]: 60 min; AUC(0-t) at 24 h [7]: 206 ng·h/mL; bioavailability [8]: 6.65%; Cmax [9]: 33.9 ng/mL; MRT last at 24 h [10]: 227 min; Tmax [11]: 4.98 min; microsomal CLint at 1 µM [1]: 55.9 µL/min/mg; MRT last at 24 h [12]: 46.2 min; AUC(0-t) at 24 h [13]: 277 ng·h/mL; half-life [14]: 51.6 min; half-life at 1 µM [2]: 62 min
12 | C=CC(=O)NC1CCCCC1Nc1ccc2c(C(=O)c3cc(OC)cc(OC)c3)c[nH]c2n1 (centres undefined) | 0.258 µM | – | –
13 | C=CC(=O)Nc1cccc(C)c1Nc1ccc2c(C(=O)c3cc(OC)cc(OC)c3)c[nH]c2n1 | 0.438 µM | – | –
14 | C=CC(=O)Nc1ccccc1Nc1ncc2c(-c3cc(OC)cc(OC)c3)n[nH]c2n1 | 4.09 µM | – | –

— ChEMBL document CHEMBL4673307, “Pyrrolo[2,3-b]pyridine-3-one derivatives as novel fibroblast growth factor receptor 4 inhibitors for the treatment of hepatocellular carcinoma” (Bioorg Med Chem, 2021)
